These results are taken from patent US12605335B2, “Triptolide lignocerate, liposome thereof and preparation method therefor” (SHANGHAI WEI ER BIOPHARMACEUTICAL TECHNOLOGY CO., LTD., priority 2022, dated 2026).

Like-named read-outs stand apart in the source and are kept apart here.

The nature of data set [1]: Log P determination by shake-flask. Type of data set: physicochemical. How it is done: The log P was determined by shake-flask. First, a certain amount of water and n-octanol are added into the funnel, shaken and separated to obtain water-saturated n-octanol solution and n-octanol saturated aqueous solution; quantify and accurately weigh triptolide and its derivatives in a volumetric bottle containing water-saturated n-octanol solution, and dissolve by ultrasound, drop water-saturated n-octanol solution, dilute and volume. Take 0.5 mL of this solution in a 5 mL volumetric flask, dilute with MeOH and volume. The concentration of triptolide and its derivatives was determined by the assay method; take the above solution to the Xilin bottle, add 10 times the amount of n-octanol saturated aqueous solution, and shake in a bath of 37° C. and 75 rpm for one day, so that triptolide and its derivatives reach equilibrium state in aqueous and organic phase. The n-octanol phase was transferred into a centrifuge tube, centrifuged at 3000 rpm for 10 min, precision measuring n-octanol phase in a volumetric flask, diluted 10 times with MeOH solution, and measured the content of triptolide and its derivatives in n-octanol phase. Drug concentration in the aqueous phase=total drug concentration-drug concentration in the n-octanol phase.
[formula] 3. The Content Determination Method of Triptolide and Its Derivatives in This Embodiment is Determined by High-Performance Liquid Chromatography (2020 Edition, Chinese Pharmacopoeia's Fourth Part Rule 0512), as Follows: • Chromatographic conditions: using chromatographic column: Agilent ZORBAX Eclipse Plus C18 column (4.6 mm×250 mm, 5 μm), mobile phase: 100% MeOH, column temperature: 30° C., flow rate: 1.0 mL/min, sample input: 20 μL, detection wavelength: 218 nm. • Preparation of control solution: accurately weighing triptolide and its derivatives 10 mg, placed in a 10 mL volumetric flask, dissolved with methanol and diluted to the scale line, shake well, as the control reserve solution. • Preparation of standard curve: Reserve solutions of different volumes of control were diluted to produce series solutions with mass concentrations of 5.00, 10.00, 25.00, 50.00, 100.00, 250.00, and 500.00 μg/mL, respectively. 20 μL of each sample was injected into the HPLC system and analyzed according to the “Chromatographic Conditions”. With the concentration C (μg/mL) as the abscissa and the peak area A as the ordinate, the linear regression is obtained. • Assay: accurately absorb 1 mL of each sample solution of triptolide and its derivatives to a 5 mL volumetric flask, dilute with methanol to the scale line, and vortex-mix evenly. 20 μL was injected into the HPLC chromatogram, recorded and calculated by the peak area according to the standard curve method. 4. Experimental Results

A further data set relates to ear vein. Description: Vascular irritation evaluation, rabbit ear vein. To be noted: rabbits, ear vein 0.22 mg/kg (based on TP), daily for three days, histology 48 hours after last administration. Type of data set: in vivo. How it is done: […] (weighing 1.5-2.0 kg) were randomly divided into 6 groups. Each group received intravenous injection via the right ear vein of either saline solution, TP-LA liposomes prepared according to Examples 35, 42, and 53, TP (DMSO) solution, or Minnelide solution, at a dose of 0.22 mg/kg (calculated based on TP), administered at a rate of 1 mL/min. Simultaneously, saline of equal volume was administered via the left ear vein as a control. This procedure was repeated daily for three consecutive days.
During each day of administration, the animals' behavior and pathological changes at the injection site were observed macroscopically. Euthanasia was performed 48 hours after the last administration. Tissue samples were collected approximately 2.0 cm towards the central end from the injection site on the ear vein, fixed in 10% paraformaldehyd solution, dehydrated using an ethanol gradient, embedded in paraffin, and sectioned into slices stained with hematoxylin and […]. All samples were examined using a BX43-DP21 light microscope (Olympus Corporation, Japan), and pathological changes were assessed.

The subject of data set [2] is Panc 02 pancreatic cancer model. Description: In vivo antitumor effect, Panc 02 pancreatic cancer model (Example 55). Also on record: species or system mouse. The following applies: ICR mice, 4 doses. How it is done:
Panc 02 pancreatic cancer cells were cultured in DMEM medium at 37° C. with 5% CO2. Cells were passaged every two days during logarithmic growth phase until reaching a concentration of 1×10^7 cells/mL. Under sterile conditions, Panc 02 cells were subcutaneously implanted into the right axilla of ICR mice to establish the pancreatic cancer model. Once the tumor volume grew to 100-300 mm^3, mice were randomly divided into 6 groups of 6 animals each. Groups included blank control group, TP (DMSO) solution group, Minnelide solution group, and TP-LA liposome dose groups. Drugs were administered via tail vein injection at a dose of 0.6 mg/kg (based on TP) every other day for a total of 4 doses. On the third day after the last administration, mice were euthanized. Body weights were recorded, tumors were excised and weighed, and tumor inhibition rates were calculated.
[formula] 3. Antitumor Effects

The subject of the next data set is advanced solid tumors. To be noted: patients with advanced solid tumors, intravenous once a week; cited from earlier work.
Another data set has as its system tumor. The following applies: Huang 2020; cited from earlier work.
Data set [3] can be described thus: Pharmacokinetic study in rats. The following applies: male, Sprague-Dawley (SD), rat, in vivo, iv, 0.6 mg/kg. How it is done: Rat tail vein dose of equimolar TP 0.6 mg/kg, blood collection time point set at 6 min, 12 min, 18 min, 30 min, 48 min, 1 h, 1.5 h, 2 h, 2.5 h, 3 h, 5 h, 12 h, 24 h, 72 h, 5 SD rats from each group (♂).
Sample processing and analysis method: take plasma with 4 times the amount of methanol to precipitate protein, centrifugation at 12000 r/min for 10 min; remove the supernatant to remove methanol, extract the remaining residue with 400 μL methyl-t-butyl ether twice, centrifugation at 12000 r/min for 10 min. The organic extraction phase was collected, concentrated and dried, 100 μL of methanol was added for redissolution, and the supernatant was centrifuged into the LC-MS/MS system to calculate the plasma concentration by using DAS 2.0 software.

The conditions of data set [4]: CN106946975A; cited from earlier work.
Data set [5] relates to Panc 02 pancreatic cancer model. Description: In vivo antitumor effect, Panc 02 pancreatic cancer model (Example 5). On the set-up: species or system mouse. The following applies: ICR mice, tail vein 0.6 mg/kg (per TP) every two days, 4 doses. How it is done:
Mouse pancreatic cancer Panc02 cells were cultured in DMEM medium at 37° C., 5% CO2 and passaged on average every two days. During the log growth phase, the cell concentration was adjusted to 1×10^7/mL, and Panc 02 cells were subcutaneously seeded in the right axilla of ICR mice under sterile conditions to establish a mouse pancreatic cancer model. When the mouse tumor volume was grown to 100-300 mm^3, the mice were randomly divided into 6 groups according to the tumor volume, with 6 mice in each group. The blank, TP (DMSO), TP-SA, TP-EA, TP-BA, and TP-LA were set. The mouse tail vein injection was 0.6 mg/kg (per TP), and the blank group was given 0.2 mL saline every two days for a total of 4 doses. The mice were killed on the third day of drug withdrawal, the mice were weighed, the tumor body was dissected and weighed, and the tumor suppression rate was calculated.
[formula] 3. Anti-Tumor Effect

For data set [6] the following is noted: in vivo; triptolide released via in vivo conversion of the liposomes, or triptolide itself; cited from earlier work.
[7] abbreviates: shake-flask, n-octanol/water, 37° C., read-out: log P.
Setting [8] is: tail vein 0.6 mg/kg (based on TP) every other day.

As for `CCCCCCCCCCCCCCCCCC(=O)O[C@@H]1[C@@]2(C(C)C)OC2[C@@H]2O[C@]23[C@]12O[C@H]2CC1C2=C(CC[C@@]13C)C(=O)OC2` (stereo partly shown) [Triptolide stearate, triptolide stearate], the logP at 1 day in data set [1] (setting [7]) was 2.41 ± 0.04.

As to `CC(C)[C@]12O[C@H]1[C@@H]1O[C@]13[C@]1(O[C@H]1C[C@H]1C4=C(CC[C@@]13C)C(=O)OC4)[C@@H]2OCOP(=O)(O)O` [Minnelide], in the data set on ear vein, the “vascular irritation, pathological changes of ear vein” value is “congestion and some instances of bleeding”. In data set [2] (setting [8]), this compound came in with a Body weight change of 1.09%, a Mean tumor weight of 0.222 ± 0.029 g and a Tumor inhibition rate of 68.19%. In addition, in data set [2] (tail vein 0.6 mg/kg (based on TP)), the “tail vein irritation after administration” value is “varying degrees of tail swelling and ulceration”.

In the case of `CCCCCCCCCCCCCCCCCCCCCC(=O)O[C@@H]1[C@@]2(C(C)C)OC2[C@@H]2O[C@]23[C@]12O[C@H]2CC1C2=C(CC[C@@]13C)C(=O)OC2` (stereo partly shown) [Triptolide behenate, triptolide behenate], in [1] (setting [7]), the logP at 1 day stood at 2.78 ± 0.04.

For the compound `CC(C)[C@]12O[C@H]1[C@@H]1O[C@]13[C@]1(O[C@H]1C[C@H]1C4=C(CC[C@@]13C)C(=O)OC4)[C@@H]2OC(=O)CCC(=O)[O-].[Na+]` [PG490-88Na], in the data set with advanced solid tumors, the “grade of most frequently reported adverse reactions (anemia, malaise, nausea, vomiting, diarrhea, constipation)” value is on record as 1-2 and the “interindividual variability in pharmacokinetic properties” value is 2- to 3 fold.

As to `CCCCCCCCCCCCCCCCCCCCCCCC(=O)O[C@@H]1[C@@]2(C(C)C)OC2[C@@H]2O[C@]23[C@]12O[C@H]2CC1C2=C(CC[C@@]13C)C(=O)OC2` (stereo partly shown) [Triptolide lignocerate, triptolide lignocerate], the logP at 1 day in [1] (setting [7]) was 3.12 ± 0.03.

In the case of `CC(C)[C@]12O[C@H]1[C@@H]1O[C@]13[C@]1(O[C@H]1C[C@H]1C4=C(CC[C@@]13C)C(=O)OC4)[C@@H]2O` [Triptolide], the Tumor inhibition rate in the data set on tumor was 17.67%. In [1], this compound yielded a logP at 1 day of 0.52 ± 0.01. Further, in data set [3], the AUC(0-inf) turned out to be 0.337 ng·h/mL, the Cmax was found to be 0.698 ng/mL, the MRT amounted to 32.8 min and the “[formula] (half-life)” value was found to be 13.2 ± 2.4 min. The liposomal encapsulation rate result in data set [4] is “less than 50%”. Also, in data set [5], the Mean tumor weight is given as 0.517 ± 0.097 g and the “Tumor Suppression rate” value was determined as 41.12%. In data set [2] (setting [8]), this compound came in with a Mean tumor weight of 0.417 ± 0.097 g and a Tumor inhibition rate of 40.26%. Also, the “biological half-life of triptolide” value in data set [6] is 15 min.

As usually defined, the AUC(0-inf) is total exposure, with the tail of the curve extrapolated. A word on the Cmax: it is the highest concentration seen after dosing. A word on the MRT: it is the average time that molecules of a dose stay in the body.
